“Also recorded” adds a separate entry of the source.
Experiments:
PI-3K = test: In vitro immunoprecipitation lipid kinase (PIP-3) assay; format: cell-based, Human; conditions: HE4 overexpressing clones, Cisplatin treatment
Method: FIG. 18 is a series of photographs and a schematic illustrating that HE4 regulates EGFR/PI-3K signaling in ovarian cancer cells. […] (C) Mechanistic model of HE4 overexpression induced chemoresistance against Cisplatin via activation of EGFR and PI-3K and its signaling product PIP-3.
HE4 over-expression causes deactivation of pro-survival mitochondrial proteins in SKOV-3 cells. Ovarian cancer cells (SKOV-3) (1 million) were seeded in petri dishes and allowed to adhere overnight in DMEM media supplemented with 10% Fetal Bovine serum without antibiotic. In a separate tube, HE4 cDNA was complexed with lipofectamine (Invitrogen) for 1 min-2 hrs in Optimem media (Invitrogen). HE4 cDNA Lipofectamine complex dissolved in Optimem media were added to the cells. Lipofectamine and no drug were used as control. At different time points (4 hrs, 9 hrs and 24 hr), cells were collected and lysed using lysis buffer. […] Effect of HE4 activation on PIP2-PIP3 conversion was assessed by lipid kinase assay (Yano N. et al. Biochem. J. (2009) 423 (129-143).
A panel of stable HE4 overexpressing ovarian cancer SKOV-3 cell lines were developed by incorporation of pCMV6-HE4 vector. […] The cell viability was measured by MTS assay. Basal reactive oxygen species (ROS) production were measured by FACS analysis. In vitro Phosphoinositide-3-kinase (PI-3K) activity was measured by an immuno-precipitation PIP-3 assay. […]

DNA = test: ICP-MS analysis of Cisplatin binding to DNA in cells; format: cell-based, Human; conditions: HE4+ clones versus parental SKOV-3 cells
Method: A panel of stable HE4 overexpressing ovarian cancer SKOV-3 cell lines were developed by incorporation of pCMV6-HE4 vector. Inducible HE4 overexpression was achieved by pTet-Off vector (VP 16 vector). The cell viability was measured by MTS assay. Basal reactive oxygen species (ROS) production were measured by FACS analysis. In vitro Phosphoinositide-3-kinase (PI-3K) activity was measured by an immuno-precipitation PIP-3 assay. An Inductively Coupled Plasma-Mass spectrometry (IPC-MS) analysis was carried out to estimate Cisplatin binding to DNA in cells. Mitochondria, rough ER and myelin figures were examined by Electron microscopy (EM). The screening of in-house library of compounds was carried out by MTS assay.

[1] = system: HE4 overexpressing clone-1 xenograft; test: Cisplatin response and Kaplan-Meier analysis of animals xenografted with HE4 overexpressing clones; format: in vivo, nude mice; conditions: cisplatin treated, within 14 days
Method: To ascertain the role of HE4 in the progression of ovarian cancer, the xenografts of stable HE4 overexpressing (pCMV6-HE4) clones, SKOV-3 (wild type) and the null vector clones (pCMV6) cells were raised in nude mice (strain 088, Nu/Nu). The tumor size was measured weekly.
The survival rate, tumor size, and the cisplatin or vehicle treatment response of animals xenografted with HE4 overexpressing clone-1, parental SKOV-3, and null vector clones was determined. […] Therefore, HE4 overexpression imparted chemoresistance against cisplatin treatment in animals.

HE4 [2] = test: HE4 levels in SKOV-3 cell lysates and media by sandwich ELISA; format: cell-based, Human; conditions: cytotoxic agents, 24 hrs, serum free DMEM; versus untreated controls
Method: Various agents were examined by RT-PCR or by a sandwich ELISA. […] HE4 levels in cell lysates and media were evaluated by a sandwich ELISA.
Cells were grown for 24 h in 100 mm cell culture dishes (Corning, New York, N.Y.), supernatant collected and lysates of washed and scraped cells prepared as described previously (Lange T S et al., 2007Chem Biol Drug Design, 70:302-10). Total protein of lysates was quantitated (BioRad protein estimation kit, Hercules, Calif.), and HE4 levels were determined using the HE4 EIA assay (Fujirebio Diagnostics, Malvern, Pa.), a solid-phase, non-competitive immunoassay using two mouse monoclonal antibodies, directed against two epitopes in the C-WFDC domain. Calibration curves were used to measure HE4 concentrations in both cell lysates and culture media allowing for the calculation of production and secretion of HE4 in pmol/g total cellular protein.
FIG. 15 is a bar chart showing that treatment with growth factors and cytokines affect the HE4 levels in ovarian cancer cells. SKOV-3 cells (1 million each) were seeded in 100 mm dishes and incubated overnight. The cells were treated with an array of factors (IL-6, Insulin, TNFa, EGF) and incubated for another 6 hours. The media was collected and cells were lysed using the cell lysis buffer. The HE4 content in the media or in the cell-lysate was examined by a HE4 sandwich ELISA kit.

[3] = system: HE4 overexpressing SKOV-3 clones HE4C1, -C3, -C7; test: MTS cell viability assay, HE4 overexpressing SKOV-3 clones; format: cell-based, Human; conditions: for response of HE4 overexpressing SKOV-3 clones to drug treatment (viability, words): 24 h, clones HE4C1, -C3, -C7, compared to parental SKOV-3
Method: An HE4 overexpressing vector for stable expression was engineered by inserting a coding sequence of human WAP four-disulfide core domain 2 (WFDC2) cDNA into a multiple cloning site of an eukaryotic expression vector, pCMV6-entry (Origene, Rockville, Md.). Transfection of the constructs in SKOV-3 cells was performed using Lipofectamine 2000 (Invitrogen, Carlsbad, Calif.) according to the manufacturer's instructions. Stably transfected cells were selected by resistance to G-418 (500 μg/ml) (Research Products International, Mount Prospect, Ill.), applied 48 h after transfection and continued during cell culture. G-418 resistant cells were resuspended (density 5 cells/ml) in complete medium/G-418 and seeded as 200 μl/well on a 96 well cell culture plate (Corning, New York, N.Y.). Cells growing from single colonies (cloned; stable transfection) were isolated.
(§1) Cell growth and viability of cell lines (complete medium, 24 h incubation) was determined by the CellTiter 96® AQueous One Solution Assay (Promega Corp, Madison, Wis.) following the manufacturer's recommendations with modifications (Lange T S et al., 2008 PLOS One, 3(5):e2303). Experiments are expressed as the mean of triplicate determinations (X±SD) of a representative experiment in OD (cell growth) or % of absorbance by drug-treated versus untreated cells [=100%] (cell viability). Cisplatin (CDDP), paclitaxel, doxorubicin and camptothecin (CPT) were purchased from (Sigma Aldrich, St. Louis, Mo.).
(§2) To analyze the potential biological relevance of elevated HE4 production for ovarian cancer cells the efficacy of commonly used anticancer drugs was examined in a viability assay (FIG. 5). SKOV-3 clones or parental cells were treated with cisplatin, paclitaxel, doxorubicin, or camptothecin for 24 h in various concentrations as indicated and the cytotoxicity evaluated.

SKOV-3 cells = test: MTS cell viability assay, parental/wild-type SKOV-3 cells; format: cell-based, Human; conditions: 24 h; paclitaxel 6.25, 12.5 or 25 nM; cisplatin 40 or 80 μM
Method: as §1, §2

HE4 [4] = test: HE4 secretion levels in xenografted animals by EIA ELISA; format: in vivo, nude mice; conditions: cisplatin 5 mg/kg bwt
Method: Because HE4 is a secretory protein, the secretion levels of HE4 were measured in animals by an EIA ELISA (Fujirebio Inc).

| SMILES | effect on PIP-3 synthesis (PI-3K) | Cisplatin binding to DNA (DNA) | animals that reached terminal tumor size (≥14 mm) [1] [%] | effect on HE4 levels in SKOV-3 (HE4 [2]) | response of HE4 overexpressing SKOV-3 clones to drug treatment (viability, words) [3] | response of HE4 overexpressing SKOV-3 clones to drug treatment (viability, words) ([3]; listed as Cisplatin) | sensitivity of clone HE4C1 to cisplatin ([3]; HE4C1, only at 80 μM) | fold chemoresistance against cisplatin ([3]; HE4C1 compared to parental and null vector cells) | fold lower response / loss of efficacy / resistance of HE4 overexpressing SKOV-3 clones compared to parental SKOV-3 ([3]; cell viability assay) [fold] | effect on viability of wild-type SKOV-3 cells (SKOV-3 cells) | HE4 levels in cisplatin treated groups versus vehicle treated animals (HE4 [4]) | response of HE4 overexpressing SKOV-3 clones to drug treatment (viability, words) ([3]; listed as Paclitaxel) |
| --- | --- | --- | --- | --- | --- | --- | --- | --- | --- | --- | --- | --- |
| N.N.[Cl][Pt][Cl] [cisplatin] | further enhancement of PIP-3 synthesis | reduced Cisplatin binding to DNA | ~60 | suppressed HE4 levels | two clones did not respond; also recorded: significantly reduced response | significantly reduced response | minor sensitivity | 2-4 fold | 20 | reduced the viability of wild-type SKOV-3 cells drastically | did not differ significantly; also recorded: not significantly different |  |
| CC(=O)O[C@H]1C(=O)[C@@]2(C)[C@H]([C@H](OC(=O)c3ccccc3)[C@]3(O)C[C@H](OC(=O)[C@H](O)[C@@H](NC(=O)c4ccccc4)c4ccccc4)C(C)=C1C3(C)C)[C@]1(OC(C)=O)CO[C@@H]1C[C@@H]2O [paclitaxel] |  |  |  | suppressed HE4 levels | did not display a significantly altered viability |  |  |  |  | reduced the viability of wild-type SKOV-3 cells drastically |  | significantly reduced response |

Reference: patent US9980982B2, “HE4 based therapy for malignant disease” (Women & Infants Hospital of Rhode Island, priority 2011, dated 2018)
